ChEMBL document CHEMBL5579874, “Design, Synthesis, and Biological Evaluation of 2,4-Diaminopyrimidine Derivatives as Potent CDK7 Inhibitors” (ACS Med Chem Lett, 2024)

Key:
MV4-11 = assay: Antiproliferative activity against human MV4-11 cells assessed as inhibition of cell growth incubated for 72 hrs by CCK-8 assay; assay type: functional, cell-based; conditions: MV4-11, 72 h
[1] = molecular target: Cyclin-dependent kinase 9 (Homo sapiens, UniProt P50750)
Description: Inhibition of CDK9 (unknown origin) using ULight 4EBP1 peptide as substrate incubated for 2 hrs by FRET assay

[2] = molecular target: Cyclin-dependent kinase 1 (Homo sapiens, UniProt P06493); assay: Inhibition of CDK1 (unknown origin) using ULight 4EBP1 peptide as substrate incubated for 2 hrs by FRET assay
[3] = molecular target: Tyrosine-protein kinase HCK (Homo sapiens, UniProt P08631); assay: Inhibition of human HCK incubated for 1 hr by HTRF assay
[4] = molecular target: Tyrosine-protein kinase BTK (Homo sapiens, UniProt Q06187); assay: Inhibition of human recombinant BTK incubated for 1 hr by HTRF assay
[5] = molecular target: Tyrosine-protein kinase Lyn (Homo sapiens, UniProt P07948); assay: Inhibition of human LYN incubated for 1 hr by HTRF assay
[6] = molecular target: Insulin-like growth factor 1 receptor (Homo sapiens, UniProt P08069); assay: Inhibition of human IGF1R incubated for 1 hr by HTRF assay
[7] = molecular target: Hepatocyte growth factor receptor (Homo sapiens, UniProt P08581); assay: Inhibition of human MET incubated for 1 hr by HTRF assay
[8] = molecular target: Tyrosine-protein kinase Blk (Homo sapiens, UniProt P51451); assay: Inhibition of human BLK incubated for 1 hr by HTRF assay
[9] = molecular target: T1, Cytoplasmic tyrosine-protein kinase BMX (Homo sapiens, UniProt P51813); assay: Inhibition of human BMX incubated for 1 hr by HTRF assay
T1 sequence (P51813 whole entry): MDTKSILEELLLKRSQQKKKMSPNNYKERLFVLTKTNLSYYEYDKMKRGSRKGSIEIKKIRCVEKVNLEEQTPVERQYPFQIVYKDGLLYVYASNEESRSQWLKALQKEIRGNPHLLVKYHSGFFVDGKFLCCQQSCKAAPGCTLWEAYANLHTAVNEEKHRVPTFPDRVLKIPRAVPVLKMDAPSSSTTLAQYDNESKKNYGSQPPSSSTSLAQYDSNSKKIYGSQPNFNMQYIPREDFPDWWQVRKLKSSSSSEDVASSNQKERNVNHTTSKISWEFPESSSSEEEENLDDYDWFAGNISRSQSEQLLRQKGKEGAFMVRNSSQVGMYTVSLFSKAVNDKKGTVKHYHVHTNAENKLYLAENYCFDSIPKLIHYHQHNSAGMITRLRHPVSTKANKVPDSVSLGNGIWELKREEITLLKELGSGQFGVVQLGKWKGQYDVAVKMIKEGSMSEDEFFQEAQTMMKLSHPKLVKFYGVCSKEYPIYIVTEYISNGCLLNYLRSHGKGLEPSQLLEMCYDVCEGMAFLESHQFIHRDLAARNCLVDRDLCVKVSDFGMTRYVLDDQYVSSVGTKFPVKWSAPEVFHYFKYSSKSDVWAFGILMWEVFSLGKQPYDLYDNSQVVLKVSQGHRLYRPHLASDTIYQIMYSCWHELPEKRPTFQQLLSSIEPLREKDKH

[10] = molecular target: Epidermal growth factor receptor (Homo sapiens, UniProt P00533); assay: Inhibition of human EGFR incubated for 1 hr by HTRF assay
[11] = molecular target: Cyclin-dependent kinase 5 (Homo sapiens, UniProt Q00535); assay: Inhibition of CDK5 (unknown origin) using ULight 4EBP1 peptide as substrate incubated for 2 hrs by FRET assay
[12] = molecular target: Cyclin-dependent kinase 3 (Homo sapiens, UniProt Q00526); assay: Inhibition of CDK3 (unknown origin) using ULight 4EBP1 peptide as substrate incubated for 2 hrs by FRET assay
[13] = molecular target: Cyclin-dependent kinase 4 (Homo sapiens, UniProt P11802); assay: Inhibition of CDK4 (unknown origin) using ULight 4EBP1 peptide as substrate incubated for 2 hrs by FRET assay
[14] = molecular target: T2, Tyrosine-protein kinase Tec (Homo sapiens, UniProt P42680); assay: Inhibition of human TEC incubated for 1 hr by HTRF assay
T2 sequence (P42680 whole entry): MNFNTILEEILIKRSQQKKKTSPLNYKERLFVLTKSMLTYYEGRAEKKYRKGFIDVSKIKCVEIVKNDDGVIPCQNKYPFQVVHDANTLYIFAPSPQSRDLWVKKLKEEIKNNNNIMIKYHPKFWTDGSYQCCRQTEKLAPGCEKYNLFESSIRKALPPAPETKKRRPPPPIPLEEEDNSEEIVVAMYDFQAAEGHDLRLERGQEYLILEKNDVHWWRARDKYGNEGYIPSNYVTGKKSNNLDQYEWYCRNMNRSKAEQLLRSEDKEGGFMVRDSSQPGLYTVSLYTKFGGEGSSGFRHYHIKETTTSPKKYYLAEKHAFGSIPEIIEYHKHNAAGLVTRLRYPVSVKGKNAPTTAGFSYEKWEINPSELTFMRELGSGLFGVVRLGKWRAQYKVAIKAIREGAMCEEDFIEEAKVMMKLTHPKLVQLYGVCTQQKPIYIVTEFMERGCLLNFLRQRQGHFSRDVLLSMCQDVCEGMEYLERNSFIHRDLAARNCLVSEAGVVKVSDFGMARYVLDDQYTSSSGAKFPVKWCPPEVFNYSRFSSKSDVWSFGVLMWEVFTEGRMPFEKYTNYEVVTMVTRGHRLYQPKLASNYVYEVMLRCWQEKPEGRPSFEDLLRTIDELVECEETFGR

Ephrin type-A receptor 1 = molecular target: T3, Ephrin type-A receptor 1 (Homo sapiens, UniProt P21709); assay: Inhibition of human EPHA1 incubated for 1 hr by HTRF assay
T3 sequence (P21709 whole entry): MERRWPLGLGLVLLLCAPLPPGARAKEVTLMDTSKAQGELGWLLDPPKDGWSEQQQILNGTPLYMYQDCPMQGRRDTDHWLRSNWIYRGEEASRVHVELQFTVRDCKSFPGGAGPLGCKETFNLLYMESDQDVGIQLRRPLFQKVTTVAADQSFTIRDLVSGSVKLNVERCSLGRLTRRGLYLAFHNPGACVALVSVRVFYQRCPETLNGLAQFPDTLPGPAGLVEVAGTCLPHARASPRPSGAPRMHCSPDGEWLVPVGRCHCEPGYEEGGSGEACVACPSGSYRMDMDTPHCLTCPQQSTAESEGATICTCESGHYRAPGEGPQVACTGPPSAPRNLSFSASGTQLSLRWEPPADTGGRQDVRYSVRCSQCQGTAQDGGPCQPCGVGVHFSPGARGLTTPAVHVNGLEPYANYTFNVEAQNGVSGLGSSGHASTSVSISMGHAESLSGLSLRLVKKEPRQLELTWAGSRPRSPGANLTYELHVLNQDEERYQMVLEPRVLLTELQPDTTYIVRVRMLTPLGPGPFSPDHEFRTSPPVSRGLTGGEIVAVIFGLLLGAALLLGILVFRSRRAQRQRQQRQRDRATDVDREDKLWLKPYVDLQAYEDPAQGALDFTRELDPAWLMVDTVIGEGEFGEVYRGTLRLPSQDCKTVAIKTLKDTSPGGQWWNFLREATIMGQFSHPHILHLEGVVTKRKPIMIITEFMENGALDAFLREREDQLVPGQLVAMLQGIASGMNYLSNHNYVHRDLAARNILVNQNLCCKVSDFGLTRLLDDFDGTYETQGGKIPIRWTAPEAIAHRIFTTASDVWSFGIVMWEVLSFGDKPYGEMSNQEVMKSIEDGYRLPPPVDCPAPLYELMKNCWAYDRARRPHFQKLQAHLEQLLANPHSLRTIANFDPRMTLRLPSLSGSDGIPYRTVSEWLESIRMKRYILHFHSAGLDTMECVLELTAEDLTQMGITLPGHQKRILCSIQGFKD

Aurora kinase A = molecular target: T4, Aurora kinase A (Homo sapiens, UniProt O14965); assay: Inhibition of Aurora A (unknown origin)
T4 sequence (O14965 whole entry): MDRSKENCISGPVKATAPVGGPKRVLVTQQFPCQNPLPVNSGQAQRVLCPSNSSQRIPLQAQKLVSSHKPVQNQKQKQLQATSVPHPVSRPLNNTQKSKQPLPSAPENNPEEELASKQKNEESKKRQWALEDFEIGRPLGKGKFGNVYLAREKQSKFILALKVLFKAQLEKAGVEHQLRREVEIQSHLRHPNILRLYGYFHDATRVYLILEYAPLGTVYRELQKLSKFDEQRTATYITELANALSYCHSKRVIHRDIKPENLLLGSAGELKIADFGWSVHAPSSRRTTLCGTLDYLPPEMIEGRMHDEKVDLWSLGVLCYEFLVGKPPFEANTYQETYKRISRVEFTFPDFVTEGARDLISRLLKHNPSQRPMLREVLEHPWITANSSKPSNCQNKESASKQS

[15] = molecular target: Cyclin-dependent kinase 2 (Homo sapiens, UniProt P24941); assay: Inhibition of CDK2 (unknown origin) using ULight 4EBP1 peptide as substrate incubated for 2 hrs by FRET assay
[16] = molecular target: Cyclin-dependent kinase 6 (Homo sapiens, UniProt Q00534); assay: Inhibition of CDK6 (unknown origin) using ULight 4EBP1 peptide as substrate incubated for 2 hrs by FRET assay
[17] = molecular target: Cyclin-dependent kinase 7 (Homo sapiens, UniProt P50613); assay: Inhibition of CDK7 (unknown origin) using ULight 4EBP1 peptide as substrate incubated for 2 hrs by FRET assay

SMILES: CN(C)C/C=C/C(=O)Nc1ccc(C(=O)Nc2cccc(Nc3ncc(Cl)c(-c4c[nH]c5ccccc45)n3)c2)cc1
- IC50 (MV4-11): 30.7 nM

SMILES: COC[C@@H](C)N[C@H]1CC[C@H](Nc2cc(-c3cccc(NCC4(C#N)CCOCC4)n3)c(Cl)cn2)CC1
- IC50 [1]: 3.57 nM

SMILES: CC(=O)N[C@H]1CC[C@H](c2ncc(Cl)c(Nc3ccccc3S(=O)(=O)C(C)C)n2)CC1
- IC50 [2]: > 10000 nM
- IC50 [3]: > 10000 nM
- IC50 [4]: > 10000 nM
- IC50 [5]: > 10000 nM
- IC50 [6]: 2890 nM
- IC50 [7]: > 10000 nM
- IC50 [8]: > 10000 nM
- IC50 [9]: > 10000 nM
- IC50 [10]: > 10000 nM
- IC50 [11]: 3680 nM
- IC50 [12]: 370 nM
- IC50 [13]: 645 nM
- IC50 [14]: > 10000 nM
- IC50 (Ephrin type-A receptor 1): 2480 nM
- IC50 (Aurora kinase A): 1320 nM
- IC50 [15]: 735 nM
- IC50 [16]: 1350 nM

SMILES: Cn1ncc(-c2nc(N[C@H]3CC[C@H](N)CC3)ncc2Cl)c1CC1CC1 [BTX-A51]
- IC50 [1]: 18.6 nM
- IC50 [17]: 272 nM
- IC50 (MV4-11): 158 nM
